{"source": "patent US6555531B1", "about": "“Weight promoting composition, method, and product” (Pherin Pharmaceuticals, Inc., priority 1999, dated 2003)", "key": {"[1]": {"assay": "Study CL006: mealtime dosing in metabolic unit, appetite and food intake", "format": "in vivo, human", "conditions": "some participants, dosing with mealtimes, informal analysis of blinded data", "text": "Study CL006. Study CL006 was designed to provide an evaluation of a more clinically meaningful (17β)19-norpregna-1,3,5(10)-trien-3-ol dosing regimen, as well as to provide a more controlled environment in which to evaluate appetite and food intake effects. In this study, subjects received (17β)19-norpregna-1,3,5(10)-trien-3-ol in association with mealtimes, and they remained in a metabolic unit throughout the study."}, "[2]": {"assay": "Study CL005: food consumption and appetite study", "format": "in vivo, human", "conditions": "same dosing regimen; not after placebo; preliminary data analysis", "text": "Study CL005. Study CL005 was designed to investigate in detail the effects of (17β)19-norpregna-1,3,5(10)-trien-3-ol -on food consumption in studies CL003 and CL004. The (17β)19-norpregna-1,3,5(10)-trien-3-ol dosing regimen was the same as had been used for the previous studies. Food intake and appetite were examined in this study in great detail. Subjects kept records of their appetite, food intake, etc., over a 3-4 month period."}, "[3]": {"assay": "Study CL004: follow-on appetite study", "format": "in vivo, human", "conditions": "one dose every 10 minutes for 6 hours, interim findings", "procedure": "Study CL004. Study CL004 was conducted as a follow-on to the surprising appetite results of study CL003, and was designed to provide a more focused investigation of the effects of (17β)19-norpregna-1,3,5(10)-trien-3-ol on appetite. […] Study CL004 was conducted after study CL003 had been completed."}, "VNO cells": {"test_system": "VNO cells", "assay": "In Vitro Study CL002: inward current in VNO cells", "format": "cell-based, human", "conditions": "for mean peak inward current: 10^−5 M", "procedure": "In Vitro Study CL002. This study was conducted using VNO cells that had been collected from healthy male and female volunteers. […] In addition, the magnitude of the response was greater in cells from women than in cells from men."}, "gonadotropin secretion": {"test_system": "gonadotropin secretion", "assay": "Study CL003: gonadotropin secretion study in healthy female volunteers", "format": "in vivo, human", "procedure": "Study CL003 was designed to investigate possible effects of (17β)19-norpregna-1,3,5(10)-trien-3-ol on gonadotropin secretion in healthy female volunteers. Because gonadotropins typically are secreted in a pulsatile pattern with 4-6 peaks per day, (17β)19-norpregna-1,3,5(10)-trien-3-ol was administered at 10-minute intervals over a 6-hour period. This timing was provided in order to determine whether (17β)19-norpregna-1,3,5(10)-trien-3-ol affected the pattern of pulsatility and/or the magnitude of the gonadotropin release. […] To follow up on these anecdotal reports, the investigators gave the subjects a questionnaire one month after completing their participation in the study to assess this effect of (17β)19-norpregna-1,3,5(10)-trien-3-ol in a systematic fashion."}, "VNO": {"test_system": "VNO", "assay": "In Vivo Study CL001: electrovomerogram (EVG), autonomic parameters and EEG after VNO stimulation", "set-up": "species or system human; key to performance summary: EDA / performance summary: α-CA / performance summary: EVG: + indicates a moderate increase in activity; ++ indicates a substantial increase in activity", "conditions": "for EVG, difference from the response to placebo: 200 pg vapor pulse to VNO; for mean peak amplitude of the EVG (electrovomerogram) response: single intranasal dose", "procedure": "In Vivo Study CL001. This study was conducted in healthy male and female volunteers each tested with a single dose of (17β)19-norpregna-1,3,5(10)-trien-3-ol. The mean peak amplitude of the EVG (electrovomerogram) response to intranasal administration of (17β)19-norpregna-1,3,5(10)-trien-3-ol, reported as the magnitude of the difference from the response to placebo, was […] (13.9 mV in women and 5.3 mV in men difference from the response to placebo). […] In addition, the peak amplitude of the response in women was greater than that in men. Methods: For VNO stimulation, a 10^−8 M solution of (17β)19-norpregna-1,3,5(10)-trien-3-ol vomeropherin was prepared in propylene glycol (PG). A vapor pulse (duration: 2 seconds) of the vomeropherin was obtained bubbling clean air through the solution (air flow: 3 mL/min.). This delivered an estimated quantity of 200 pg of (17β)19-norpregna-1,3,5(10)-trien-3-ol to the VNO. The control was a pulse of PG alone in vapor form. Processing and analysis of the results was done off-line. The amplitude or frequency of the different parameters was measured. The mean and standard deviation of the mean were obtain for all parameters 5 minutes after stimulation with control, and (17β)19-norpregna-1,3,5(10)-trien-3-ol. The significance of the results was studied using the paired, two-tailed student t-test, and analysis of variance."}, "[4]": {"conditions": "dosed at 10-minute intervals over 6 hours"}}, "note": "Values joined by “and” are separate entries in the source; they are usually repeats but may differ in a detail not shown here. Equal values may be shown once. “Also recorded” adds a separate entry of the source."}
{"smiles": "CC[C@H]1CC[C@H]2[C@@H]3CCc4cc(O)ccc4[C@H]3CC[C@]12C", "note": "[(17β)19-norpregna-1,3,5(10)-trien-3-ol]", "values": [{"measurement": "body weight", "setting": "[1]", "value": "treatment-related increase"}, {"measurement": "food intake", "setting": "[1]", "value": "treatment-related increase"}, {"measurement": "appetite", "setting": "[2]", "value": "perceived increase in appetite for at least one week"}, {"measurement": "appetite", "setting": "[3]; all subjects, not after placebo", "value": "increase in appetite for at least one week"}, {"measurement": "body weight", "setting": "[3]", "value": "persistent increase in body weight"}, {"measurement": "concentration of peak effect (inward current)", "setting": "VNO cells; VNO cells", "value": "10^−5 M"}, {"measurement": "concentration at which inward current response was significantly different from the control response", "setting": "VNO cells; VNO cells from men and women", "value": "≥ 10^−7 M"}, {"measurement": "response of VNO cells to application", "setting": "VNO cells; cells from both men and women, magnitude dose dependent", "value": "development of an inward current"}, {"measurement": "mean peak inward current", "setting": "VNO cells; cells from men", "value": 55, "unit": "pA"}, {"measurement": "mean peak inward current", "setting": "VNO cells; cells from women", "value": 96, "unit": "pA"}, {"measurement": "appetite (questionnaire one month after study)", "setting": "gonadotropin secretion; all subjects", "value": "large increase in appetite"}, {"measurement": "gonadotropin secretion", "setting": "gonadotropin secretion; [4]", "value": "No consistent changes"}, {"measurement": "menstrual cycle pattern or ovulation", "setting": "gonadotropin secretion; [4]", "value": "no changes"}, {"measurement": "activity in the VNO", "setting": "VNO; both female and male subjects", "value": "active"}, {"measurement": "EDA compared with placebo", "setting": "VNO; eight female subjects, 200 pg, p<0.05", "value": "increased significantly from placebo; also recorded: increased EDA"}, {"measurement": "Other autonomic parameters and EMG", "setting": "VNO; female subjects", "value": "remained unchanged"}, {"measurement": "performance summary: EDA", "setting": "VNO; female subjects", "value": "+"}, {"measurement": "performance summary: EVG", "setting": "VNO; female subjects", "value": "++"}, {"measurement": "performance summary: α-CA", "setting": "VNO; female subjects", "value": "++"}, {"measurement": "Respiratory frequency (RF), difference from placebo", "setting": "VNO; female subjects, 200 pg", "value": "+3.0 cycles/min"}, {"measurement": "alpha-cortical activity (α-CA), difference from placebo", "setting": "VNO; female subjects, 200 pg", "value": "+35.8 μV^2/Hz"}, {"measurement": "beta-cortical activity (β-CA), difference from placebo", "setting": "VNO; female subjects, 200 pg", "value": "−2.2", "unit": "μV^2/Hz"}, {"measurement": "body temperature (BT), difference from placebo", "setting": "VNO; female subjects, 200 pg", "value": "+0.2 °C"}, {"measurement": "cardiac frequency (CF), difference from placebo", "setting": "VNO; female subjects, 200 pg", "value": 0, "unit": "beats/min"}, {"measurement": "electromyogram (EMG), difference from placebo", "setting": "VNO; female subjects, 200 pg", "value": 0, "unit": "Hz"}, {"measurement": "EVG, difference from the response to placebo", "setting": "VNO; female subjects", "value": "13.9 mV and 13.8 mV"}, {"measurement": "electrodermal activity (EDA), difference from placebo", "setting": "VNO; female subjects, 200 pg, 5 minutes after stimulation", "value": "+109.4 μS"}, {"measurement": "Alpha rhythm recorded from T4A2 compared with placebo", "setting": "VNO; female subjects, p<0.05", "value": "increased significantly from placebo"}, {"measurement": "beta rhythm in CA2 compared with placebo", "setting": "VNO; female subjects, p<0.05", "value": "decreased beta rhythm"}, {"measurement": "performance summary: EDA", "setting": "VNO; male subjects", "value": "+"}, {"measurement": "performance summary: EVG", "setting": "VNO; male subjects", "value": "+"}, {"measurement": "Body temperature compared with placebo", "setting": "VNO; male subjects, p<0.05", "value": "decreased"}, {"measurement": "alpha rhythm compared with placebo", "setting": "VNO; male subjects, p<0.05", "value": "decreased"}, {"measurement": "Other biological parameters", "setting": "VNO; males", "value": "did not change significantly"}, {"measurement": "EVG, difference from the response to placebo", "setting": "VNO; men", "value": 5.3, "unit": "mV"}, {"measurement": "EDA compared with placebo", "setting": "VNO; men, p<0.05", "value": "increased EDA"}, {"measurement": "EVG response compared with placebo", "setting": "VNO; men, p<0.05", "value": "significantly greater than that to placebo; also recorded: significantly different from placebo"}, {"measurement": "mean peak amplitude of the EVG (electrovomerogram) response", "setting": "VNO; men", "value": 30, "unit": "mV"}, {"measurement": "BT, difference from placebo", "setting": "VNO; six male subjects", "value": "−1.2"}, {"measurement": "CF, difference from placebo", "setting": "VNO; six male subjects", "value": 0}, {"measurement": "EDA, difference from placebo", "setting": "VNO; six male subjects", "value": "+79.1"}, {"measurement": "EMG, difference from placebo", "setting": "VNO; six male subjects", "value": 0}, {"measurement": "EVG, difference from placebo", "setting": "VNO; six male subjects", "value": "+5.3"}, {"measurement": "RF, difference from placebo", "setting": "VNO; six male subjects", "value": "−1.7"}, {"measurement": "α-CA, difference from placebo", "setting": "VNO; six male subjects", "value": "−11.7"}, {"measurement": "EVG response compared with placebo", "setting": "VNO; women", "value": "significantly greater than that to placebo; also recorded: robust mean EVG; also recorded: large EVG"}, {"measurement": "mean peak amplitude of the EVG (electrovomerogram) response", "setting": "VNO; women", "value": 50, "unit": "mV"}]}
